Data on 18 compounds can be found in PMC9143003, “Neutrophil Immunomodulatory Activity of Farnesene, a Component of Artemisia dracunculus Essential Oils” (Pharmaceuticals, 2022).

Like-named read-outs stand apart in the source and are kept apart here.

The subject of series [1] is human neutrophils. Also on record: method as in PMID 27586050, PMID 25959257. Particulars: previous analysis; cited from earlier work.
Series [2] has as its system fMLF-stimulated human neutrophils (FPR1 agonist fMLF). The series is described as follows: Inhibition of fMLF-induced [Ca2+]i. Particulars: pure compounds, 10 min pretreatment, 5 nM fMLF, read-out: Inhibition of [Ca^2+]i fMLF-Induced IC50. It counts as cell-based. The source says:
(§1) We obtained human neutrophils using blood collected from healthy donors. Blood collection was approved by the Institutional Review Board at Montana State University (Protocol #MQ041017). Neutrophils were isolated as described previously. The isolated neutrophils were resuspended in HBSS^–. Neutrophil preparations were routinely >95% pure and >98% viable, as determined by light microscopy and trypan blue exclusion, respectively.
(§2) Changes in intracellular Ca^2+ concentrations ([Ca^2+]i) were monitored with a FlexStation 3 (Molecular Devices, Sunnyvale, CA, USA). For these assays, neutrophils were loaded with 1.25 μg/mL Fluo-4AM and incubated in the dark at 37 °C for 30 min. The cells were then washed with HBSS^-. The dye-loaded cells were resuspended in HBSS^+ and pipetted into the wells of black microtiter plates at 2 × 10^5 cells/well. To measure the direct effects of samples on [Ca^2+]i, the test samples were added to the wells (final concentration of DMSO was 1%), and fluorescence was monitored (λex = 485 nm, λem = 538 nm). Changes in fluorescence were monitored every 5 s at room temperature for 240 s. To evaluate the inhibitory effects of the test samples, the samples were added to the wells and incubated for 10 min, with the subsequent addition of 5 nM fMLF, 5 nM WKYMVM, or 25 nM IL-8. Responses were normalized to the response induced by control 5 nM fMLF, 5 nM WKYMVM, or 25 nM IL-8 alone without pretreatment. These responses were assigned as 100%. To calculate median effective concentrations (EC50 or IC50), we used curve fitting (at least five or six points) and nonlinear regression analysis of the dose–response curves. Curve fitting was performed with Prism 9 (GraphPad Software, Inc., San Diego, CA, USA).

Series [3] has as its system WKYMVM-stimulated human neutrophils (FPR2 agonist WKYMVM). The experiment in a line: Inhibition of WKYMVM-induced [Ca2+]i. In kind it is cell-based. Particulars: pure compounds, 10 min pretreatment, 5 nM WKYMVM, read-out: Inhibition of [Ca^2+]i WKYMVM-Induced IC50.
Source text: as §1, §2

Series [4] concerns human neutrophils. The experiment in a line: Ca2+ mobilization assay, direct activation of [Ca2+]i. In kind it is cell-based. Particulars: pure compounds; for EC50: human neutrophils, mean ± SD of three experiments, read-out: Activation of [Ca^2+]i EC50; for Effect on human neutrophil Ca^2+ flux (in words): direct effect.
Source text: as §1, §2
(In general: Calcium assays in cells follow changes in intracellular calcium, usually with a dye or a luminescent sensor.)

Series [5] has as its system human neutrophils. The experiment in a line: Cytotoxicity assay (CellTiter-Glo), neutrophils. Particulars: pure compounds, 90 min incubation, no cytotoxicity = IC50 > 55 µM. How it is done:
We analyze cytotoxicity in human neutrophils or THP-1 monocytic cells. Cytotoxicity was analyzed using a CellTiter-Glo Luminescent Cell Viability Assay Kit (Promega, Madison, WI, USA). Briefly, the cells were incubated (10^4 cells/well) with the indicated concentrations of essential oil or compound for 90 min (for neutrophils) or 24 h (for THP-1 cells) at 37 °C/5% CO2. After incubation, we added substrate. The samples were analyzed using a Fluoroscan Ascent FL microplate reader.

Series [6] relates to IL-8-stimulated human neutrophils. The series is described as follows: Inhibition of IL-8-induced [Ca2+]i. It counts as cell-based. The note with it: 10 min pretreatment, 25 nM human IL-8; read-out: Inhibition of IL-8 induced neutrophil [Ca^2+]i IC50.
Source text: as §1
as §2, with “Responses were normalized to the response induced by control 5 nM fMLF, 5 nM WKYMVM, or 25 nM IL-8 alone without pretreatment. These responses were assigned as 100%. To calculate median effective concentrations (EC50 or IC50), we used curve fitting (at least five or six points) and nonlinear regression analysis of the dose–response curves. Curve fitting was performed with Prism 9 (GraphPad Software, Inc., San Diego, CA, USA).” left out

Series [7] relates to human THP-1 monocytic cells. The experiment in a line: Cytotoxicity assay (CellTiter-Glo), THP-1. In kind it is cell-based. How it is done:
Human THP-1 monocytic cells obtained from ATCC (Manassas, VA, USA) were cultured in RPMI 1640 medium (Mediatech Inc., Herndon, VA, USA) supplemented with 10% (v/v) FBS, 100 μg/mL streptomycin, and 100 U/mL penicillin. […] After incubation, we added substrate.
(ATP-based viability assays read luminescence as a measure of living cells.)

Series [8] concerns human neutrophils. The series is described as follows: Chemotaxis assay toward fMLF (ChemoTx chambers). It counts as cell-based. Particulars: pure compounds, 30 min pretreatment, 1 nM fMLF; for IC50: read-out: Inhibition of fMLF-induced neutrophil chemotaxis IC50.
Source text: as §1
To evaluate effects of samples on neutrophil migration, we resuspended neutrophils in HBSS^+ containing 2% (v/v) heat-inactivated FBS (2 × 10^6 cells/mL). We analyzed chemotaxis using 96-well ChemoTx chambers (Neuroprobe, Gaithersburg, MD). The neutrophils were first preincubated with the indicated concentrations of test samples at room temperature for 30 min. The pretreated cells were then pipetted into the chamber upper wells (4 × 10^4 cells/well). The lower wells contained 30 µL of HBSS^+ with 2% (v/v) heat-inactivated FBS, the indicated test samples or control 1% DMSO, and 1 nM fMLF as the chemoattractant. Three lower wells were reserved for background controls (DMSO treated cells in the upper wells and DMSO without fMLF in the lower wells). We allowed the cells to migrate through the polycarbonate membrane filter for 60 min at 37 °C/5% CO2. We determined the number of migrated cells by measuring ATP in lysates of transmigrated cells and comparing this to a standard curve obtained with known neutrophil numbers, as described previously. Calculation of median effective concentrations (IC50) was performed by nonlinear regression analysis of the dose-response curves.

The subject of series [9] is FPR1. Also on record: method as in PMID 16972170, PMID 11211928, PMID 11853704. Particulars: cited from earlier work.

In the case of `CC1=CCC(O)(C(C)C)CC1` (centres unmarked) [terpinen-4-ol], the “Effect on human neutrophil [Ca^2+]i (in words)” value (“Effect … [Ca^2+]i (in words)” below) in series [1] was “no effect”.
`C=C1C2CCC(C2)C1(C)C` (centres unmarked) [camphene]: in series [1], the “Effect … [Ca^2+]i (in words)” value is reported as “no effect”.
By IC50 is commonly meant the concentration that gives 50% inhibition. As a reminder, the EC50 is the concentration at which the effect is half-maximal. Regarding `CC12CCC(CC1)C(C)(C)O2` [1,8-Cineole], the IC50 in series [2] (Homo sapiens, Neutrophil) is over 55 µM; in [3] (Homo sapiens, Neutrophil), over 55 µM. The EC50 in series [4] (Neutrophil) is over 55 µM. Moreover, in series [4], the “Effect on human neutrophil Ca^2+ flux (in words)” value is “did not affect human neutrophil Ca^2+ flux”. The Cytotoxicity entry in series [5] is recorded as “Nontoxic”.
In the case of `C=CCc1ccc(OC)cc1` [methyl chavicol], in series [1], the “Effect … [Ca^2+]i (in words)” value is “no effect”.
Turning to `Cc1ccc(C(C)C)cc1` [p-cymene], the “Effect … [Ca^2+]i (in words)” value in [1] was “no effect”.
On to Farnesene, for which the IC50 was determined as 1.1 ± 0.2 µM in series [2], 1.4 ± 0.5 µM in series [3], 2.6 µM in series [6] and 3.3 ± 1.4 µM in [8]. For the same compound, the “Viability of human THP-1 monocytic cells” value in series [7] is on record as “did not affect the viability”. Moreover, in series [4], the “Effect on human neutrophil Ca^2+ flux (in words)” value is given as “weak activators”. The EC50 in [4] was 28.5 ± 2.6 µM.
In the case of `CC12CCC(CC1=O)C2(C)C` (stereo not drawn) [(+)-Camphor], the IC50 in [2] and in series [3] was over 55 µM throughout. Moreover, in [4], the “Effect on human neutrophil Ca^2+ flux (in words)” value is “did not affect human neutrophil Ca^2+ flux”. Moreover, in [4], the EC50 is over 55 µM.
Turning to `C=CCc1ccc(OC)c(OC)c1` [methyl eugenol], in series [1], the “Effect … [Ca^2+]i (in words)” value is “no effect”.
As for `COc1cc(O)c(C(C)=O)c(OC)c1` [Xanthoxylin], the IC50 in [2] (Homo sapiens, Neutrophil) amounted to 27.2 ± 6.6 µM; in [3] (Homo sapiens, Neutrophil), 52.7 ± 11.2 µM. The “Viability of human THP-1 monocytic cells” value in series [7] (24 h incubation) was “did not affect the viability”. The “Inhibition of fMLF-induced neutrophil chemotaxis IC50” value in series [8] was “did not affect this response”. For the same compound, the EC50 in [4] (Neutrophil) amounted to 53.3 ± 5 µM. Further, in [4], the “Effect on human neutrophil Ca^2+ flux (in words)” value is “weak activators”. The Cytotoxicity result in series [5] is “Nontoxic”.
Regarding `C=CC(C)(O)CCC=C(C)C` (centres unmarked) [linalool], the “Effect … [Ca^2+]i (in words)” value in series [1] is “no effect”.
`CC1(C)[C@H]2CC[C@]1(C)C(=O)C2` [(−)-Camphor]: the IC50 in series [2] (Homo sapiens, Neutrophil) is over 55 µM; in [3] (Homo sapiens, Neutrophil) it was over 55 µM. Moreover, the EC50 in [4] (Neutrophil) was over 55 µM. Moreover, the “Effect on human neutrophil Ca^2+ flux (in words)” value in [4] is “did not affect human neutrophil Ca^2+ flux”. In series [5], the Cytotoxicity entry is listed as “Nontoxic”.
In the case of `CC1=CCC(=C(C)C)CC1` [terpinolene], in [1], the “Effect … [Ca^2+]i (in words)” value is reported as “no effect”.
Regarding `C[C@H](CCC(=O)O)[C@H]1CC[C@H]2[C@@H]3CC[C@@H]4C[C@H](O)CC[C@]4(C)[C@H]3C[C@H](O)[C@]12C` [deoxycholic acid], the “Concentrations at which FPR1 is antagonized” value in [9] is over 100 µM.
On to `C[C@H](CCC(=O)O)[C@H]1CC[C@H]2[C@@H]3[C@H](O)C[C@@H]4C[C@H](O)CC[C@]4(C)[C@H]3CC[C@]12C` [chenodeoxycholic acid], for which, in series [9], the “Concentrations at which FPR1 is antagonized” value is on record as over 100 µM.
Take `CC1=CC(=O)C(C(C)C)CC1` (centres unmarked) [Piperitone]: the IC50 was over 55 µM in series [2] (Homo sapiens, Neutrophil) and over 55 µM in series [3] (Homo sapiens, Neutrophil). Further, the concentration giving a half-maximal response (EC50) in series [4] (Neutrophil) is over 55 µM. The “Effect on human neutrophil Ca^2+ flux (in words)” value in [4] is “did not affect human neutrophil Ca^2+ flux”. Further, the Cytotoxicity result in series [5] is given as “Nontoxic”.
For `CC1=CCC2CC1C2(C)C` (stereo not drawn) [α-pinene], the “Effect … [Ca^2+]i (in words)” value in series [1] is reported as “no effect”.
As to (±)-Bornyl acetate, the IC50 in series [2] was determined as 42.6 ± 9.7 µM; in [3], 19.1 ± 0.1 µM; in series [8] it was 11.9 ± 1.9 µM. Further, the “Viability of human THP-1 monocytic cells” value in series [7] is recorded as “did not affect the viability”. For the same compound, the “Effect on human neutrophil Ca^2+ flux (in words)” value in series [4] was “weak activators”. Further, the EC50 in series [4] was found to be 50.1 ± 11.5 µM.
In the case of `Cc1ccc(C(C)(C)O)cc1` [p-cymen-8-ol], in [1], the “Effect … [Ca^2+]i (in words)” value is given as “no effect”.
